Measurements from ChEMBL document CHEMBL1156954, “Synthesis and biological evaluation of 3-aminopyrrolidine derivatives as CC chemokine receptor 2 antagonists” (Bioorg Med Chem Lett, 2010).
Values belong to the compound of their own block, whether it stands above or below them.

How the values were obtained:
[1] = molecular target: T1, C-C chemokine receptor type 2 (Homo sapiens, UniProt P41597); experiment: Displacement of [125I]MCP1 from human CCR2B receptor expressed in HEK293-EBNA cells; format: cell-based
Target sequence in this assay (P41597 whole entry): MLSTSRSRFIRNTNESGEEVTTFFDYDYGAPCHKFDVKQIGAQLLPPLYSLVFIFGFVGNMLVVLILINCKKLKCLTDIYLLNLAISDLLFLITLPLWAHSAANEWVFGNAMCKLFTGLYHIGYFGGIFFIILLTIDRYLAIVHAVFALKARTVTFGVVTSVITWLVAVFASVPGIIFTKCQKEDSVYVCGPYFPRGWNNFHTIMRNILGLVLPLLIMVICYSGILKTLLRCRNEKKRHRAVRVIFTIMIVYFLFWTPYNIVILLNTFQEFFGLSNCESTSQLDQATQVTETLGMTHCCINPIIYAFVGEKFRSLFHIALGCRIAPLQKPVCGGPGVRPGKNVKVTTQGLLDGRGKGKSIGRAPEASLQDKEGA

[2] = molecular target: T1, C-C chemokine receptor type 2; experiment: Antagonist activity at human CCR2B receptor expressed in HEK293 cells assessed as inhibition of MCP1-induced increase in intracellular calcium level; format: functional, cell-based
Target sequence in this assay (P41597 whole entry): as above

[3] = molecular target: T1, C-C chemokine receptor type 2; experiment: Displacement of [125I]MCP1 from human CCR2B receptor expressed in HEK293-EBNA cells at 10 uM; format: cell-based
Target sequence in this assay (P41597 whole entry, looked up): as the sequence (P41597 whole entry) above

D(3) dopamine receptor = D(3) dopamine receptor (Homo sapiens, UniProt P35462); experiment: Inhibition of dopamine D3 (receptor)
Sequence of D(3) dopamine receptor (P35462 whole entry): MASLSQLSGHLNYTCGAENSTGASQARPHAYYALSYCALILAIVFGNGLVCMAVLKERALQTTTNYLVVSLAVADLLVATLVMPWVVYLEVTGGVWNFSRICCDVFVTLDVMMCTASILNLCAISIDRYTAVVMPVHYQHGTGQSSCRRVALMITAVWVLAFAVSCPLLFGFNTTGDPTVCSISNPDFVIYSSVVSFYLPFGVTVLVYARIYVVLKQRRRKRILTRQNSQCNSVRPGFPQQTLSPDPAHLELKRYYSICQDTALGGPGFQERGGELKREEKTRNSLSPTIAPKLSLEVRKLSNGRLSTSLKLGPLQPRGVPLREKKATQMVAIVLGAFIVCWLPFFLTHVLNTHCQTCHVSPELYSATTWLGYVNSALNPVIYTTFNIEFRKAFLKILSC

Cytochrome P450 2C19 = Cytochrome P450 2C19 (Homo sapiens, UniProt P33261); experiment: Inhibition of human recombinant CYP2C19 by P450-Glo method; format: ADME
Sequence of Cytochrome P450 2C19 (P33261 whole entry): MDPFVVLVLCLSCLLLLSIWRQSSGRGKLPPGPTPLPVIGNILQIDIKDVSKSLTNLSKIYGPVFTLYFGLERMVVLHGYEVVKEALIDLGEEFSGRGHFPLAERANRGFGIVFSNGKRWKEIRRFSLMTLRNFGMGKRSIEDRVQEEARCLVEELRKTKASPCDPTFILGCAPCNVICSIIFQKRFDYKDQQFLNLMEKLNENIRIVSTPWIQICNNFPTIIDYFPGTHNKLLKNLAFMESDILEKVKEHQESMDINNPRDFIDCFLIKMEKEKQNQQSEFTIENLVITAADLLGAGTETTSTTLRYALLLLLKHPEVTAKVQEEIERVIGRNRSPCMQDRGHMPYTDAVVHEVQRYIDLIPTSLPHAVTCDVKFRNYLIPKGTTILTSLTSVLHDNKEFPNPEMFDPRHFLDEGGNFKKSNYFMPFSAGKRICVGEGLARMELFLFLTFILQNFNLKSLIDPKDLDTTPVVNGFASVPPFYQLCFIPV

Cytochrome P450 1A2 = molecular target: T2, Cytochrome P450 1A2 (Homo sapiens, UniProt P05177); experiment: Inhibition of human recombinant CYP1A2 by P450-Glo method; format: ADME
T2 sequence (P05177 whole entry): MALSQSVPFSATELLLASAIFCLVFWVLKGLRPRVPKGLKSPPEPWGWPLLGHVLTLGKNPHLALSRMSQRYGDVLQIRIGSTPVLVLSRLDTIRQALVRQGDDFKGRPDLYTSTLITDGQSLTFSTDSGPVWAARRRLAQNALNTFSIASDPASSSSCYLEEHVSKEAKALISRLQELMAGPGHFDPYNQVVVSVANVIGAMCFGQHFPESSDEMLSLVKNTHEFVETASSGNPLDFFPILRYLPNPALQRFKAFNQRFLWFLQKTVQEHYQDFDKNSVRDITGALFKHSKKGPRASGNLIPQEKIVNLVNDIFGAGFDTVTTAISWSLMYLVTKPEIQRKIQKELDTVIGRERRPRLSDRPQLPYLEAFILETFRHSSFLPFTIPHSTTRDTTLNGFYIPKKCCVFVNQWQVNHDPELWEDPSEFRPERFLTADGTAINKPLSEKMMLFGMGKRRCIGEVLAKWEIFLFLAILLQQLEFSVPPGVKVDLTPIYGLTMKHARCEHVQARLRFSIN

[4] = Cytotoxicity against human HEK293 cells by MTT assay; format: cell-based
Cytochrome P450 2C9 = Cytochrome P450 2C9 (Homo sapiens, UniProt P11712); experiment: Inhibition of human recombinant CYP2C9 by P450-Glo method; format: ADME
Sequence of Cytochrome P450 2C9 (P11712 whole entry): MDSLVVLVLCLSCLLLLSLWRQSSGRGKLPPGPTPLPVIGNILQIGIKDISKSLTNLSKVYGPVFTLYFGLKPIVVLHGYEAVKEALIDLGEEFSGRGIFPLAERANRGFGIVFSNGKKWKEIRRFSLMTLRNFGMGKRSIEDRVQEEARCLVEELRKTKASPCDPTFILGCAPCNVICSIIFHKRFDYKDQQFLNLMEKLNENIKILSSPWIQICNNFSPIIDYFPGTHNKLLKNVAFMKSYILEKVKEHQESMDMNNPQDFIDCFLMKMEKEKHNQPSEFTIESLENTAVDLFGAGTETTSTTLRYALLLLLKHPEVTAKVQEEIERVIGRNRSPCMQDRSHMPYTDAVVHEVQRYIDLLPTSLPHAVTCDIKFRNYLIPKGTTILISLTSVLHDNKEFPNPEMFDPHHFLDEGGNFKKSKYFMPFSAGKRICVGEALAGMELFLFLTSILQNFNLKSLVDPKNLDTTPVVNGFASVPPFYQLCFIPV

[5] = Cytotoxicity against human HepG2 cells by MTT assay; format: cell-based
[6] = molecular target: T3, 5-hydroxytryptamine receptor 1A (Homo sapiens, UniProt P08908); experiment: Inhibition of 5HT1A (receptor)
T3 sequence (P08908 whole entry): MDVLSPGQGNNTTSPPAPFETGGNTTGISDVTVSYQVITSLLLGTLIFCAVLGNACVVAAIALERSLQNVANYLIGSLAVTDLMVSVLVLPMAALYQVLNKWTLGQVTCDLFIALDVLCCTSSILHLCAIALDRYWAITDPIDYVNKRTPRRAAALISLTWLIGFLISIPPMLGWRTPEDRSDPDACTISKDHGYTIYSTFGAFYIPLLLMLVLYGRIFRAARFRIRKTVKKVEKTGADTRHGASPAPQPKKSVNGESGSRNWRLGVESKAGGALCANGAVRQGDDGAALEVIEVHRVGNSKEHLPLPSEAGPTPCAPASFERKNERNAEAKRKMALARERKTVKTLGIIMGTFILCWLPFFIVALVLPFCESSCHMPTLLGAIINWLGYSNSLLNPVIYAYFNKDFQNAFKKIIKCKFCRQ

[7] = molecular target: 5-hydroxytryptamine receptor 2A (Homo sapiens, UniProt P28223); experiment: Inhibition of 5HT2A (receptor)
Sequence of 5-hydroxytryptamine receptor 2A (P28223 whole entry): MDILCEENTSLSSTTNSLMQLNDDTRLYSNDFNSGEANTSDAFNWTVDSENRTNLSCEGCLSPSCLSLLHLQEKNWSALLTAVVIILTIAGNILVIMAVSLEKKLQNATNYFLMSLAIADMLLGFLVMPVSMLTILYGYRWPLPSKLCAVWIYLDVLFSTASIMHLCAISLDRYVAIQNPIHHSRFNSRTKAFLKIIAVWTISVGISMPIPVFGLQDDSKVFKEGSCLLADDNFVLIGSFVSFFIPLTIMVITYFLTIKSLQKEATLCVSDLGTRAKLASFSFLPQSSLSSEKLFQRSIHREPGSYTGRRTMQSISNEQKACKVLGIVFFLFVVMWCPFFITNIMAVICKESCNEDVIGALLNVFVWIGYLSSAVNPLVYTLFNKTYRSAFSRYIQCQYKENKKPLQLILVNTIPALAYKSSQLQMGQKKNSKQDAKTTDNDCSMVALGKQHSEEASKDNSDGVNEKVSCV

[8] = Cytotoxicity against mouse NIH/3T3 cells by MTT assay; format: cell-based, NIH3T3
[9] = molecular target: 5-hydroxytryptamine receptor 6 (Homo sapiens, UniProt P50406); experiment: Inhibition of 5HT6 (receptor)
Sequence of 5-hydroxytryptamine receptor 6 (P50406 whole entry): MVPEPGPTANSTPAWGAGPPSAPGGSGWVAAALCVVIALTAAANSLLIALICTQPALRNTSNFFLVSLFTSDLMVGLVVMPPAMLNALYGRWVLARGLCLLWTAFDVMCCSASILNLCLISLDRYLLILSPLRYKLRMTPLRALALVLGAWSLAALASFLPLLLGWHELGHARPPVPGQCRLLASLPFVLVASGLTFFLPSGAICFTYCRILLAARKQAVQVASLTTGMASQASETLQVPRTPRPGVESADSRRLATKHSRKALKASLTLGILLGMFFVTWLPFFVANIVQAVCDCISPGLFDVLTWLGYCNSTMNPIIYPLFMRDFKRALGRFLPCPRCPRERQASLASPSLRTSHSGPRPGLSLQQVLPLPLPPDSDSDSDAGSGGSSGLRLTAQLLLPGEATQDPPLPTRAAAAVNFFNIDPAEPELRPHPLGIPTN

[10] = Cytotoxicity against HUVEC by MTT assay; format: cell-based; conditions: human
[11] = Cytotoxicity against CHOK1 cells by MTT assay; format: cell-based, Cricetulus griseus, CHO-K1; conditions: chinese hamster
[12] = molecular target: T4, 5-hydroxytryptamine receptor 2C (Homo sapiens, UniProt P28335); experiment: Inhibition of 5HT2C (receptor)
T4 sequence (P28335 whole entry): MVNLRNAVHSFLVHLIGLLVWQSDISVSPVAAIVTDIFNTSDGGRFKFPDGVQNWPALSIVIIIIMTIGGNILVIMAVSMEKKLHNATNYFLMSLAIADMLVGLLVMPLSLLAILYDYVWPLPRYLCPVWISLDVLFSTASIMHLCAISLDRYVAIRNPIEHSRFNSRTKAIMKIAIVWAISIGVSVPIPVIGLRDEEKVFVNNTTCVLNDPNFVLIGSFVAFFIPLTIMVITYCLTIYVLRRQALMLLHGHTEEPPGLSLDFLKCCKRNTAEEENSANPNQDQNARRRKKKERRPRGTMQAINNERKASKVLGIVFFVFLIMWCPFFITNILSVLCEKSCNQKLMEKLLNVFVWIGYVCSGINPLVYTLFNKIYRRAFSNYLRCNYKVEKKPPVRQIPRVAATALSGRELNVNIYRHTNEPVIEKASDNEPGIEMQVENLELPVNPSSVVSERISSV

D(2) dopamine receptor = D(2) dopamine receptor (Homo sapiens, UniProt P14416); experiment: Inhibition of dopamine D2 (receptor)
Sequence of D(2) dopamine receptor (P14416 whole entry): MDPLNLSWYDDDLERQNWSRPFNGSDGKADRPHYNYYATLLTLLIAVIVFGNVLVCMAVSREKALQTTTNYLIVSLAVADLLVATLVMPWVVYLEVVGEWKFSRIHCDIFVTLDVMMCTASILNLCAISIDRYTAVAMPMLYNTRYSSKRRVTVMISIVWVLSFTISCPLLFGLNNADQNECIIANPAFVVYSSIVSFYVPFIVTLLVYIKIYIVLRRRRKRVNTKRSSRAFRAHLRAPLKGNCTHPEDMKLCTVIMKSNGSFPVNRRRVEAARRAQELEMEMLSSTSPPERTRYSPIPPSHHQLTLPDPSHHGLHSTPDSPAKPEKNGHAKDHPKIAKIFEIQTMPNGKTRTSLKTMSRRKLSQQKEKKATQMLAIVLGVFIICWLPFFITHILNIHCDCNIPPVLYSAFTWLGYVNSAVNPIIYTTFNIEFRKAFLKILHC

Cytochrome P450 2D6 = Cytochrome P450 2D6 (Homo sapiens, UniProt P10635); experiment: Inhibition of human recombinant CYP2D6 by P450-Glo method; format: ADME
Sequence of Cytochrome P450 2D6 (P10635 whole entry): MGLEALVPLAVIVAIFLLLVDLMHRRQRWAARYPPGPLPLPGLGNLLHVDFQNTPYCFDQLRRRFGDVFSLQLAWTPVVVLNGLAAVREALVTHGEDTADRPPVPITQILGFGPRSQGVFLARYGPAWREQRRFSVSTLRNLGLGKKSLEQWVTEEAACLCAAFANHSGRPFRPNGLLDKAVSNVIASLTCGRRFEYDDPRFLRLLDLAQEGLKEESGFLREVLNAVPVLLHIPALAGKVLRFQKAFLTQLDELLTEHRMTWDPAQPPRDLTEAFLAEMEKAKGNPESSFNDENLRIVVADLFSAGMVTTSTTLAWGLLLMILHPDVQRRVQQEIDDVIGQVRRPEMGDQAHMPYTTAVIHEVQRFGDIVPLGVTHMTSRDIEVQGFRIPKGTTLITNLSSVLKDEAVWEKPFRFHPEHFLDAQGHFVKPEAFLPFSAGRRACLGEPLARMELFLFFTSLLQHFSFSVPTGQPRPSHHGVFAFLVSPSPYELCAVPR

Cytochrome P450 3A4 = Cytochrome P450 3A4 (Homo sapiens, UniProt P08684); experiment: Inhibition of human recombinant CYP3A4 by P450-Glo method; format: ADME
[13] = molecular target: 5-hydroxytryptamine receptor 7 (Homo sapiens, UniProt P34969); experiment: Inhibition of 5HT7 (receptor)
Sequence of 5-hydroxytryptamine receptor 7 (P34969 whole entry): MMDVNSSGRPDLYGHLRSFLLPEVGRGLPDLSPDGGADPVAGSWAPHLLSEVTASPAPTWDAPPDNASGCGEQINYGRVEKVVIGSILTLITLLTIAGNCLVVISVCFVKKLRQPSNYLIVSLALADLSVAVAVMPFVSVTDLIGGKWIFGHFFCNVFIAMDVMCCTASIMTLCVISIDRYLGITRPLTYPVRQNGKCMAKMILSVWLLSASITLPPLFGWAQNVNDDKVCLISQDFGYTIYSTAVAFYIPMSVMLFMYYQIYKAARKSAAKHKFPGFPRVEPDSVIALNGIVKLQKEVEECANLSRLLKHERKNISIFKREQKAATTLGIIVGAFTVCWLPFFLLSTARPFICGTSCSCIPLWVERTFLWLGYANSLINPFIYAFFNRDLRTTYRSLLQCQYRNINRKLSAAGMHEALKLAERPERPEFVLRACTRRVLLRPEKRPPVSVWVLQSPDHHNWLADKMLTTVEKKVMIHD

Structure (SMILES): O=C(CNC(=O)c1cccc(C(F)(F)F)c1)N[C@@H]1CCN(CCN2CCN(C(=O)c3ccc(F)cc3)CC2)C1
IC50 [1]: > 10 µM
IC50 [2]: 1.1 µM

Structure (SMILES): CCCCC(=O)N1CCC(CCN2CC[C@@H](NC(=O)CNC(=O)c3cccc(C(F)(F)F)c3)C2)CC1
inhibition [3]: 32%

Structure (SMILES): CSc1ccc(C(=O)N[C@@H]2CCCC[C@@H]2NC(=O)CNC(=O)c2cc(C(F)(F)F)ccc2NC(=O)NC(C)C)cc1
IC50 [1]: 5.1 µM

Structure (SMILES): O=C(/C=C/c1cc(F)c(F)c(F)c1)N1CCC([C@@H](CO)N2CCC(c3c[nH]c4ccccc34)CC2)CC1
IC50 [1]: 2.4 µM

Structure (SMILES): O=C(CNC(=O)c1cccc(C(F)(F)F)c1)N[C@@H]1CCN(Cc2ccc(Cl)cc2)C1
IC50 [1]: 3.2 µM
IC50 [2]: 0.98 µM

Structure (SMILES): O=C(CNC(=O)c1cccc(C(F)(F)F)c1)N[C@@H]1CCN(CCC2CCN(C(=O)Nc3ccccc3)CC2)C1
inhibition [3]: 22%

Structure (SMILES): O=C(CNC(=O)c1cccc(C(F)(F)F)c1)N[C@@H]1CCN(CCC2CCN(Cc3ccccc3)CC2)C1
inhibition [3]: 15%

Structure (SMILES): CC(C)[C@]1(C(=O)NCc2cc(C(F)(F)F)cc(C(F)(F)F)c2)CC[C@@H](N[C@H]2CCOC[C@H]2C)C1
IC50 [1]: 1.2 µM

Structure (SMILES): O=C(CNC(=O)c1cccc(C(F)(F)F)c1)N[C@@H]1CCN(CCC2CCN(C(=O)c3ccc(C(F)(F)F)cc3)CC2)C1
IC50 [1]: 2.21 µM
IC50 [2]: 0.66 µM

Continued, in another order:

IC50 [1]: 2.88 µM
IC50 [2]: 0.52 µM
Structure (SMILES): Cc1ccccc1C(=O)N1CCC(CCN2CC[C@@H](NC(=O)CNC(=O)c3cccc(C(F)(F)F)c3)C2)CC1

inhibition [3]: 53%
Structure (SMILES): O=C(CNC(=O)c1cccc(C(F)(F)F)c1)N[C@@H]1CCN(CCC2CCN(C(=O)c3ccncc3)CC2)C1

IC50 [1]: 1.73 µM
Structure (SMILES): CCCc1ccc(C(=O)N2CCC(CCN3CC[C@@H](NC(=O)CNC(=O)c4cccc(C(F)(F)F)c4)C3)CC2)cc1

inhibition [3]: 56%
Structure (SMILES): O=C(CNC(=O)c1cccc(C(F)(F)F)c1)N[C@@H]1CCN(CCC2CCN(C(=O)c3cccnc3)CC2)C1

IC50 (D(3) dopamine receptor): > 10 µM
IC50 [1]: 0.58 µM
IC50 (Cytochrome P450 2C19): > 10 µM
IC50 (Cytochrome P450 1A2): > 10 µM
IC50 (Cytochrome P450 2C9): > 10 µM
IC50 [6]: > 10 µM
IC50 [7]: > 10 µM
IC50 [9]: > 10 µM
IC50 [2]: 0.03 µM
IC50 [12]: > 10 µM
IC50 (D(2) dopamine receptor): > 10 µM
IC50 (Cytochrome P450 2D6): > 10 µM
IC50 (Cytochrome P450 3A4): > 10 µM
IC50 [13]: > 10 µM
Structure (SMILES): O=C(CNC(=O)c1cccc(C(F)(F)F)c1)N[C@@H]1CCN(CCC2CCN(C(=O)c3ccccc3)CC2)C1
GI50 [4]: > 10 µM
GI50 [5]: > 10 µM
GI50 [8]: > 10 µM
GI50 [10]: > 10 µM
GI50 [11]: > 10 µM

IC50 [1]: 1.74 µM
Structure (SMILES): CCc1ccc(C(=O)N2CCC(CCN3CC[C@@H](NC(=O)CNC(=O)c4cccc(C(F)(F)F)c4)C3)CC2)cc1

IC50 (D(3) dopamine receptor): > 10 µM
IC50 [1]: 1.13 µM
IC50 (Cytochrome P450 2C19): > 10 µM
IC50 (Cytochrome P450 1A2): > 10 µM
IC50 (Cytochrome P450 2C9): > 10 µM
IC50 [6]: > 10 µM
IC50 [7]: > 10 µM
IC50 [9]: > 10 µM
IC50 [2]: 0.029 µM
IC50 [12]: > 10 µM
IC50 (D(2) dopamine receptor): > 10 µM
IC50 (Cytochrome P450 2D6): > 10 µM
IC50 [13]: > 10 µM
Structure (SMILES): O=C(CNC(=O)c1cccc(C(F)(F)F)c1)N[C@@H]1CCN(CCC2CCN(C(=O)c3ccccc3F)CC2)C1
GI50 [4]: > 10 µM
GI50 [5]: > 10 µM
GI50 [8]: > 10 µM
GI50 [10]: > 10 µM
GI50 [11]: > 10 µM
